The text below walks through data of paper PMC6515479, “An Investigation on Glucuronidation Metabolite Identification, Isozyme Contribution, and Species Differences of GL-V9 In Vitro and In Vivo” (Molecules, 2019).

One data set concerns the target T1, rUGT1A3 (Homo sapiens, UniProt P35503).
T1 construct: purchased Corning (Woburn, MA, USA)
T1 sequence (P35503 29-534): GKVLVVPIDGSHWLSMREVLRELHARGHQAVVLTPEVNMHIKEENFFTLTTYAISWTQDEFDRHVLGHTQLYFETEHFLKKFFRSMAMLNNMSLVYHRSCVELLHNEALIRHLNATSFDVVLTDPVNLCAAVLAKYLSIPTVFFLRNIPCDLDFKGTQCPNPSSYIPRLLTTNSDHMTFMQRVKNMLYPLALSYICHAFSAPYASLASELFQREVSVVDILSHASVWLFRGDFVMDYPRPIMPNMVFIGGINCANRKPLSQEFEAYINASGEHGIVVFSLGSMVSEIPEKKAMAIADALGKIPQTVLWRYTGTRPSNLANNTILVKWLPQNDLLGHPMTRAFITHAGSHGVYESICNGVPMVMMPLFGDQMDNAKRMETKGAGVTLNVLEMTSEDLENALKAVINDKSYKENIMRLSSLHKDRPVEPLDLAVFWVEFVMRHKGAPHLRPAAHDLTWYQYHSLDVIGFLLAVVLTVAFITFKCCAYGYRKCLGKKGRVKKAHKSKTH
The data set can be described thus: UGT phenotyping of GL-V9 glucuronidation, rUGT1A3. Type of data set: in vitro ADME. To be noted: GL-V9 0.5, 1, 5 μM, 37 °C, 1 h. The method, then:
(§1) The composition of the incubation system (200 μL) contained liver microsomes of different species (0.1 mg protein/mL), 5 mM saccharolactone (D-saccharic acid 1,4-lactone monohydrate), 10 mM MgCl2, alamethicin (50 μg/mg protein), Tris-HCl buffer (50 mM, pH 7.4) and GL-V9 (1 μM). After 5 min of preincubation at 37 °C, UDPGA (5 mM) was added to initiate the phase II reaction. Control incubation samples were performed without UDPGA or without substrates (GL-V9). The reaction was terminated by addition of ice-cold methanol (three volumes) after incubation for 1 h at 37 °C. Samples were vortexed, centrifuged at 21,500× g for 10 min and then stored at 4 °C until HPLC-UV-TripleTOF analysis. To confirm that these metabolites are conjugates resulting from glucuronidation reaction, enzymatic hydrolysis of samples was processed. β-glucuronidase (100 KU, Sigma) was added and the hydrolysis was performed overnight at 37 °C. The control samples were carried out without β-glucuronidase under the same condition.
(§2) Twelve human recombinant UGT isoforms (rUGT1A1, rUGT1A3, rUGT1A4, rUGT1A6, rUGT1A7, rUGT1A8, rUGT1A9, rUGT1A10, rUGT2B4, rUGT2B7, rUGT2B15, and rUGT2B17) were employed to identify the main UGT enzyme(s) responsible for glucuronidation of GL-V9 under mixture conditions as described in Section 4.3. […]

A further data set deals with T2, rUGT2B15 (Homo sapiens, UniProt P54855).
T2 construct: purchased Corning (Woburn, MA, USA)
T2 sequence (P54855 24-530): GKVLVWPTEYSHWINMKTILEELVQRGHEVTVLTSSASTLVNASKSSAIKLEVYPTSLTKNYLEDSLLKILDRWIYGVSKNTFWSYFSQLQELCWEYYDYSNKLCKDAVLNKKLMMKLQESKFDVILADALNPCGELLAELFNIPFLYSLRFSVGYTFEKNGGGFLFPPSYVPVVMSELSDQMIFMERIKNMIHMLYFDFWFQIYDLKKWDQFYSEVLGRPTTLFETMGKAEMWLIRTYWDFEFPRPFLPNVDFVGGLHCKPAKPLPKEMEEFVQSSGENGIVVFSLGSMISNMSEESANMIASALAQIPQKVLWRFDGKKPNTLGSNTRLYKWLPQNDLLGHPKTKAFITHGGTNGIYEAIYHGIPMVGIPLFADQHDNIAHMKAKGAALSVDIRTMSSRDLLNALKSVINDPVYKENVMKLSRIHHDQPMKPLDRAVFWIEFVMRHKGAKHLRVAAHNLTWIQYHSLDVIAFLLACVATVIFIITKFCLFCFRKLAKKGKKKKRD
The data set can be described thus: UGT phenotyping of GL-V9 glucuronidation, rUGT2B15. In kind it is in vitro ADME. Particulars: GL-V9 0.5, 1, 5 μM, 37 °C, 1 h. The method, then:
as §1, §2

For data set [1] the following is noted: cited from earlier work.
The target in the next data set is T3, rUGT2B17 (Homo sapiens, UniProt O75795).
T3 construct: purchased Corning (Woburn, MA, USA)
T3 sequence (O75795 24-530): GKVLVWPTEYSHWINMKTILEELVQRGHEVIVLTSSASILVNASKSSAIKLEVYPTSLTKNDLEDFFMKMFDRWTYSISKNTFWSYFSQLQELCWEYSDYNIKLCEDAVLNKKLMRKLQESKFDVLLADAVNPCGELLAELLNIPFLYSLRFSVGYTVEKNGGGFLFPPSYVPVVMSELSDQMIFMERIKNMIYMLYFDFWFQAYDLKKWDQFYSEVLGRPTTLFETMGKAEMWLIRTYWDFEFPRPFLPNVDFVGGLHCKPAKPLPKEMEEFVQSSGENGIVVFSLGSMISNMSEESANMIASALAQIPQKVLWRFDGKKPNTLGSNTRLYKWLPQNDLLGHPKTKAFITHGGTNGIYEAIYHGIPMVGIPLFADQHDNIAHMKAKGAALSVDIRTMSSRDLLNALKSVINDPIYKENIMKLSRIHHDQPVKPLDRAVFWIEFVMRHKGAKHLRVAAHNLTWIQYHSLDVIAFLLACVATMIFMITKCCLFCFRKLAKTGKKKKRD
Put plainly: UGT phenotyping of GL-V9 glucuronidation, rUGT2B17. In kind it is in vitro ADME. Particulars: GL-V9 0.5, 1, 5 μM, 37 °C, 1 h. On the procedure:
as §1, §2

[2] abbreviates: GL-V9 in rat plasma, oral (gavage) GL-V9 50 mg/kg, n=6, mean ± SD.
The mark [3] stands for this setting: GL-V9 in rats, oral GL-V9 50 mg/kg, n=6, mean ± SD.

The term AUC(0-t) denotes exposure summed from dosing to a finite time, without extrapolation to infinity. By Cmax is commonly meant the maximum level reached in the sampled fluid or tissue. In general, AUC(0-inf) refers to the area under the concentration-time curve extrapolated to infinity. In general, Tmax refers to the time from dosing to the highest level. With `COc1c(OCCCCN2CCCC2)cc(O)c2c(=O)cc(-c3ccccc3)oc12` [GL-V9], the “Metabolism rate (glucuronidation)” value at rUGT1A3 is given as “too low to be biologically relevant”. Besides, the “Catalytic activity in the production of 5-O-glucuronide GL-V9” value at rUGT2B15 was “did not show apparent catalytic activity”. Also, in data set [1] (setting [2]), the exposure AUC(0-t) was 1212.06 ± 246.47 ng·h/mL, the Cmax is listed as 167.33 ± 50.05 ng/mL and the T1/2 is on record as 3.08 ± 1.05 h. In addition, the “AUC(0-inf)” value in data set [1] (GL-V9 in rat plasma, oral GL-V9 50 mg/kg, n=6, mean ± SD) is 1256.04 ± 271.82 ng·h/mL. The Tmax in data set [1] (GL-V9 in rat plasma, oral GL-V9 50 mg/kg, n=6) is 0.31 to 0.77 h. The F in data set [1] (GL-V9 in rats, oral GL-V9 50 mg/kg) was 8.54%. Further, in data set [1] (setting [3]), the CL is 689.7 ± 147 mL/min/kg, the MRT0-t is 7.70 ± 0.91 h and the Vd is recorded as 181.06 ± 63.57 L/kg. In addition, the “Catalytic activity in the production of 5-O-glucuronide GL-V9” value at rUGT2B17 is given as “did not show apparent catalytic activity”.
